Measured values from PMC4423596 (Angewandte Chemie (International ed. in English), 2015).

Legend:
CBP/p300 KIX domain [1] = target: T1, CBP/p300 KIX domain (Mus musculus, UniProt P45481); experiment: PrOF NMR chemical shift perturbation at fixed ligand concentration; assay type: binding; settings: 3FY-labeled KIX; 833 µM to 5 mM small molecule
CBP/p300 KIX domain [2] = target: T1, CBP/p300 KIX domain; experiment: PrOF NMR ligand titration; assay type: binding
MLL-KIX PPI site = settings: cited from earlier work

T1 sequence (P45481 586-665): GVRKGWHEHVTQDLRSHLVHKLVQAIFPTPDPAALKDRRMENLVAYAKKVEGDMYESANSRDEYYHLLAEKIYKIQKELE

| SMILES | chemical shift perturbation (PrOF NMR), in words (CBP/p300 KIX domain [1]) | IC50 (MLL-KIX PPI site) | further results |
| --- | --- | --- | --- |
| CC(C)Cc1ccc(C(C)C(=O)O)cc1 (stereo not drawn) [ibuprofen] | significant chemical shift perturbations |  |  |
| CC(C(=O)O)c1ccc(-c2ccccc2)c(F)c1 (stereo not drawn) [Flurbiprofen, flurbiprofen] |  |  | Kd (CBP/p300 KIX domain [2]): 5900 ± 600 µM; Ligand Efficiency (CBP/p300 KIX domain [2]; calculated from the PrOF Kd): 0.17 kcal mol^−1 NHA^−1 |
| CCCc1cc(OC)cc(O)c1C(=O)Oc1c(OC)cc(CCC)c(C(=O)O)c1O [sekikaic acid] |  | 34 µM |  |
| CCCCCc1c2c(cc(O)c1C(=O)O)OC(=O)c1c(cc(OC)cc1C(=O)CCCC)O2 [lobaric acid] |  | 17 µM |  |
| O=C(Nc1ccc(Cl)cc1)c1cc2ccccc2cc1OP(=O)(O)O [KG-501, Naphthol AS-E phosphate] | identified a binding interaction |  |  |
